In data set [1] the test system is T24 cells. The experiment in a line: Apoptosis (Cell Death Detection ELISA), T24. The following applies: 50 nM, 48 hours, over mismatch control. The class given is cell-based, human. The procedure: (§1) For all ex vivo oligo treatment, human A549 human […] carcinoma cells were seeded in 10 cm tissue culture dishes one day prior to oligonucleotide treatment. The cell lines were obtained from the American Type Culture Collection (ATCC) (Manassas, Va.) and were grown under the recommended culture conditions. Before the addition of the oligonucleotides, cells were washed with PBS (phosphate buffered saline). Next, lipofectin transfection reagent (GIBCO BRL Mississauga, Ontario, Calif.), at a concentration of 6.25 μg/ ml, was added to serum free OPTIMEM medium (GIBCO BRL, Rockville, Md.), which was then added to the cells. The oligonucleotides were added directly to the cells (i.e., one oligonucleotide per plate of cells). Mismatched oligonucleotides were used as controls. The same concentration of oligonucleotide (e.g., 50 nM) was used per plate of cells for each oligonucleotide tested.
(§2) In order to determine the effect of HDAC ODNs on cell growth inhibition and cell death through apoptosis, A549, T24, DuI45, HCT116 cells (ATCC, Manassas, Va.), or HMEC cells (BioWhittaker, Walkersville, Md.) were treated with HDAC ODNs as previously described.
(§3) For the apoptosis study, cells were analyzed using the Cell Death Detection ELISA^Plus kit (Roche Diagnostic GmBH, Mannheim, Germany) according to the manufacturer's directions. Typically, 10,000 cells were plated in 96-well tissue culture dishes for 2 hours before harvest and lysis. Each sample was analyzed in duplicate. ELISA reading was done using a MR700 plate reader (DYNEX Technology, Ashford, Middlesex, England) at 410 nm. The reference was set at 490 nm.

In data set [2] the test system is MDAmb231 cells. The experiment in a line: Growth inhibition by antisense oligos, MDAmb231. The class given is cell-based, human. The note with it: 50 nM, 48 hour, vs cells treated with lipofectin. The procedure:
[The procedure below names another cell line; the source lists this cell line under the same test.] as §1, with “tested. […]” for “tested.”
(§4) For the cell growth inhibition analysis, human cancer or normal cells were treated with 50 nM of paired AS or MM oligos directed against human HDAC-1, HDAC-7 or HDAC-8for up to 96 hours. Cell numbers were counted every day by trypan blue exclusion. Percentage of inhibition was calculated as (100 - AS cell numbers/control cell numbers)%.

In the next data set the test system is human HDAC-1 RNA. The experiment in a line: HDAC-1 RNA expression screen in T24 cells, Northern blot. Type of data set: cell-based. The following applies: 100 nM, 24 hours. The procedure: To identify antisense oligodeoxynucleotide (ODN) capable of inhibiting HDAC-1 expression in human cancer cells, eleven phosphorothioate ODNs containing sequences complementary to the 5′ or 3′ UTR of the human HDAC-1 gene (GenBank Accession No. U50079) were initially screened in T24 cells at 100 nM. Cells were harvested after 24 hours of treatment, and HDAC-1 RNA expression was analyzed by Northern blot analysis. […] HDAC-1 MM oligo was created as a control; compared to the antisense oligo, it has a 6-base mismatch.

Another data set deals with Du145 cells. Description: Growth inhibition by antisense oligos, Du145. Type of data set: cell-based, human. The following applies: 50 nM, 48 hour, vs cells treated with lipofectin. How it is done: as §1, §2, §4
Data set [3] has as its system MDAmb231 cells. The experiment in a line: Inhibition of agar colony formation, MDAmb231. Type of data set: cell-based, human. The following applies: 50 nM oligos for 48 hours, vs cells treated with lipofectin.
In data set [4] the test system is MDAmb231 cells. Description: Apoptosis (Cell Death Detection ELISA), MDAmb231. The note with it: 50 nM, 48 hours, over mismatch control. Type of data set: cell-based, human. Background: An ELISA detects its analyte on a solid surface through an enzyme-linked reagent.
Another data set has as its system HCT116 cells. The experiment in a line: Apoptosis (Cell Death Detection ELISA), HCT116. The class given is cell-based, human. The following applies: 50 nM, 48 hours, over mismatch control. How it is done:
as §1, with “tested. […]” for “tested.”
For the apoptosis study, cells were analyzed using the Cell Death Detection ELISA^Plus kit (Roche Diagnostic GmBH, Mannheim, Germany) according to the manufacturer's directions. […] Each sample was analyzed in duplicate. ELISA reading was done using a MR700 plate reader (DYNEX Technology, Ashford, Middlesex, England) at 410 nm. […]

Data set [5] deals with A549 cells. The experiment in a line: Apoptosis (Cell Death Detection ELISA), A549. The class given is cell-based, human. The note with it: 50 nM, 48 hours, over mismatch control. How it is done: as §1, §2, §3
[…] Similarly, A549 cells were treated with 20 nM of HDAC1 AS in combination with 20 nM of each of AS inhibitors against human HDAC2 to HDAC8. After 48 hour treatment, A549 cells were harvested and analyzed for apoptosis by ELISA as described previously. Apoptosis of A549 cells by AS inhibition was compared to that of cells treated with 1 uM TSA for 16 hours. […] The control oligo UMM had no effect on induction of apoptosis.

Data set [6] has as its system A549 cells. The experiment in a line: Inhibition of agar colony formation, A549. The class given is cell-based, human. The following applies: 50 nM oligos for 48 hours, vs cells treated with lipofectin.
Data set [7] concerns T24 cells. Description: Growth inhibition by antisense oligos, T24. Type of data set: cell-based, human. The following applies: 50 nM, 48 hour, vs cells treated with lipofectin. How it is done:
as §1, with “tested. […]” for “tested.”
as §4

The next data set concerns H446 cells. Description: Growth inhibition by antisense oligos, H446. Type of data set: cell-based, human. The following applies: 75 nM treatment for 2 days, vs cells treated with lipofectin.
The test system of data set [8] is MCF-7 cells. Description: Apoptosis (Cell Death Detection ELISA), MCF-7. Type of data set: cell-based, human. The note with it: 50 nM, 48 hours, over mismatch control.
Data set [9] has as its system A549 cells. Description: Growth inhibition by antisense oligos, A549. The class given is cell-based, human. The note with it: 50 nM, 48 hour, vs cells treated with lipofectin. How it is done: as §1, §2, §4
In data set [10] the test system is MCF-7 cells. The experiment in a line: Growth inhibition by antisense oligos, MCF-7. Type of data set: cell-based, human. The note with it: 75 nM treatment for 2 days, vs cells treated with lipofectin. How it is done:
[The procedure below names another cell line; the source lists this cell line under the same test.] as §1, with “tested. […]” for “tested.”
as §4

Consider “5′-GAAACGTGAGGGACTCAGCA-3′ (chemistry not given here) [HD1 AS1]”, for which the “Apoptosis T24” value in the data set on T24 cells [1] was “+ (“+” means the induction of apoptosis at least 2 fold over mismatch control (50 nM, 48 hours))”. In the data set with MDAmb231 cells [2], the “Growth Inhibition MDAmb 231” value is reported as “+ (“+” means >35% inhibition of cell growth by antisense oligos (50 nM, 48 hour) compared to that of cells treated with lipofectin)”. Further, in the data set with human HDAC-1 RNA, the “HDAC-1 RNA expression, screen” value is “antisense activity to human HDAC-1”. Besides, the “Growth Inhibition Du145” value with Du145 cells is given as “+ (“+” means >35% inhibition of cell growth by antisense oligos (50 nM, 48 hour) compared to that of cells treated with lipofectin)”. In addition, in the data set with MDAmb231 cells [3], the “inhibition of agar colony formation MDAmb 231” value is on record as “+ (“+” means >35% inhibition of agar colony formation of cells treated with 50 nM oligos for 48 hours compared to that of cells treated with lipofectin)”. The “Apoptosis MDAmb 231” value in the data set on MDAmb231 cells [4] is “+ (“+” means the induction of apoptosis at least 2 fold over mismatch control (50 nM, 48 hours))”. Also, the “Apoptosis HCT 116” value in the data set with HCT116 cells is “+ (“+” means the induction of apoptosis at least 2 fold over mismatch control (50 nM, 48 hours))”. Further, in the data set with A549 cells [5], the “Apoptosis A549” value is listed as “+ (“+” means the induction of apoptosis at least 2 fold over mismatch control (50 nM, 48 hours))”. Also, the “inhibition of agar colony formation A549” value in the data set with A549 cells [6] is “+ (“+” means >35% inhibition of agar colony formation of cells treated with 50 nM oligos for 48 hours compared to that of cells treated with lipofectin)”. In addition, the “Growth Inhibition T24” value with T24 cells [7] was “+ (“+” means >35% inhibition of cell growth by antisense oligos (50 nM, 48 hour) compared to that of cells treated with lipofectin)”. The “Growth Inhibition H446” value in the data set with H446 cells is “+ (“+” means >35% inhibition of cell growth by antisense oligos (50 nM, 48 hour) compared to that of cells treated with lipofectin)”. Further, the “Apoptosis MCF-7” value in the data set on MCF-7 cells [8] is recorded as “+ (“+” means the induction of apoptosis at least 2 fold over mismatch control (50 nM, 48 hours))”. Besides, the “Growth Inhibition A549” value in the data set with A549 cells [9] is reported as “+ (“+” means >35% inhibition of cell growth by antisense oligos (50 nM, 48 hour) compared to that of cells treated with lipofectin)”. The “Growth Inhibition MCF-7” value in the data set on MCF-7 cells [10] is reported as “+ (“+” means >35% inhibition of cell growth by antisense oligos (50 nM, 48 hour) compared to that of cells treated with lipofectin)”.
